Holding throughout (assay): relative viability (nuclei count vs DMSO), 5 days (fraction); higher = more cells survive
Compound in the assay “IPA-3 + Navitoclax”: C1=CC=C2C(=C1)C=CC(=C2SSC3=C(C=CC4=CC=CC=C43)O)O [IPA-3] + CC1(C)CCC(c2ccc(Cl)cc2)=C(CN2CCN(c3ccc(C(=O)NS(=O)(=O)c4ccc(N[C@H](CCN5CCOCC5)CSc5ccccc5)c(S(=O)(=O)C(F)(F)F)c4)cc3)CC2)C1 [Navitoclax] (partner 0.5 µM)
The essentials: (§1)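 Each reported value is a median over duplicate plates. It expresses relative viability: treated-well nuclei count divided by vehicle-well nuclei count. Lung cancer cell lines in 1536-well plates were dosed by pin tool a day after seeding, alone with one drug or with a fixed anchor-drug dose plus five library-drug doses (not always all listed) in √10 steps, and nuclei were counted after 5 days.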

Compound in the assay “RAF265 + Navitoclax”: Cn1c(Nc2ccc(C(F)(F)F)cc2)nc2cc(Oc3ccnc(-c4ncc(C(F)(F)F)[nH]4)c3)ccc21 [RAF265] + CC1(C)CCC(c2ccc(Cl)cc2)=C(CN2CCN(c3ccc(C(=O)NS(=O)(=O)c4ccc(N[C@H](CCN5CCOCC5)CSc5ccccc5)c(S(=O)(=O)C(F)(F)F)c4)cc3)CC2)C1 [Navitoclax] (partner 0.5 µM)
In a few lines:
as §1

Compound in the assay “RAF265 + Tozasertib”: Cn1c(Nc2ccc(C(F)(F)F)cc2)nc2cc(Oc3ccnc(-c4ncc(C(F)(F)F)[nH]4)c3)ccc21 [RAF265] + Cc1cc(Nc2cc(N3CCN(C)CC3)nc(Sc3ccc(NC(=O)C4CC4)cc3)n2)n[nH]1 [Tozasertib] (partner 0.1 µM)
The essentials:
as §1

Compound in the assay “RAF265 + Alpelisib”: Cn1c(Nc2ccc(C(F)(F)F)cc2)nc2cc(Oc3ccnc(-c4ncc(C(F)(F)F)[nH]4)c3)ccc21 [RAF265] + Cc1nc(NC(=O)N2CCC[C@H]2C(N)=O)sc1-c1ccnc(C(C)(C)C(F)(F)F)c1 [Alpelisib] (partner 2 µM)
In a few lines: as §1

As to NCI-H1666, the relative viability was found to be 1.07 with IPA-3 + Navitoclax (first compound 0.2 µM); 0.981 with IPA-3 + Navitoclax (first compound 0.6325 µM); 1.08 with IPA-3 + Navitoclax (first compound 2 µM); 0.962 in the assay with IPA-3 + Navitoclax (first compound 6.325 µM); 0.863 with IPA-3 + Navitoclax (first compound 20 µM); 1.01 with RAF265 + Navitoclax (first compound 0.01 µM). The relative viability is 1 in the assay with RAF265 + Navitoclax (first compound 0.03162 µM); 0.882 in the assay with RAF265 + Navitoclax (first compound 0.1 µM); 0.931 in the assay with RAF265 + Navitoclax (first compound 0.3162 µM); 0.454 in the assay with RAF265 + Navitoclax (first compound 1 µM); 0.635 with RAF265 + Tozasertib (first compound 0.01 µM); 0.664 with RAF265 + Tozasertib (first compound 0.03162 µM). The relative viability with RAF265 + Tozasertib (first compound 0.1 µM) came to 0.689; with RAF265 + Tozasertib (first compound 0.3162 µM), 0.618; with RAF265 + Tozasertib (first compound 1 µM), 0.488; with RAF265 + Alpelisib (first compound 0.01 µM) it was 1.1; with RAF265 + Alpelisib (first compound 0.03162 µM), 1.11; with RAF265 + Alpelisib (first compound 0.1 µM) it was 0.942. Besides, the relative viability is 0.815 with RAF265 + Alpelisib (first compound 0.3162 µM) and 0.547 with RAF265 + Alpelisib (first compound 1 µM).
Regarding NCI-H1734, the relative viability was 1.1 with IPA-3 + Navitoclax (first compound 0.2 µM); 0.834 in the assay with IPA-3 + Navitoclax (first compound 0.6325 µM); 0.781 with IPA-3 + Navitoclax (first compound 2 µM); 0.844 in the assay with IPA-3 + Navitoclax (first compound 6.325 µM); 1.02 with IPA-3 + Navitoclax (first compound 20 µM); 0.886 with RAF265 + Navitoclax (first compound 0.01 µM). The relative viability came to 0.656 with RAF265 + Navitoclax (first compound 0.03162 µM); 0.825 with RAF265 + Navitoclax (first compound 0.1 µM); 0.628 with RAF265 + Navitoclax (first compound 0.3162 µM); 0.348 with RAF265 + Navitoclax (first compound 1 µM); 0.306 in the assay with RAF265 + Tozasertib (first compound 0.01 µM); 0.276 with RAF265 + Tozasertib (first compound 0.03162 µM). Also, the relative viability in the assay with RAF265 + Tozasertib (first compound 0.1 µM) is 0.255; with RAF265 + Tozasertib (first compound 0.3162 µM), 0.232; with RAF265 + Tozasertib (first compound 1 µM) it was 0.215; with RAF265 + Alpelisib (first compound 0.01 µM), 0.668; in the assay with RAF265 + Alpelisib (first compound 0.03162 µM), 0.529; with RAF265 + Alpelisib (first compound 0.1 µM), 0.589. Further, the relative viability with RAF265 + Alpelisib (first compound 0.3162 µM) is 0.532; with RAF265 + Alpelisib (first compound 1 µM) it was 0.333.
Regarding NCI-H1755, the relative viability with IPA-3 + Navitoclax (first compound 0.2 µM) was determined as 1.07; with IPA-3 + Navitoclax (first compound 0.6325 µM), 1.01; in the assay with IPA-3 + Navitoclax (first compound 2 µM), 1; in the assay with IPA-3 + Navitoclax (first compound 6.325 µM) it was 1.03; with IPA-3 + Navitoclax (first compound 20 µM) it was 1.02; with RAF265 + Navitoclax (first compound 0.01 µM), 0.999. Moreover, the relative viability with RAF265 + Navitoclax (first compound 0.03162 µM) stood at 0.879; in the assay with RAF265 + Navitoclax (first compound 0.1 µM) it was 0.764; in the assay with RAF265 + Navitoclax (first compound 0.3162 µM), 0.671; in the assay with RAF265 + Navitoclax (first compound 1 µM) it was 0.356; with RAF265 + Tozasertib (first compound 0.01 µM), 0.556; with RAF265 + Tozasertib (first compound 0.03162 µM), 0.634. For the same cell line, the relative viability with RAF265 + Tozasertib (first compound 0.1 µM) worked out at 0.598; with RAF265 + Tozasertib (first compound 0.3162 µM) it was 0.552; in the assay with RAF265 + Tozasertib (first compound 1 µM) it was 0.402; with RAF265 + Alpelisib (first compound 0.01 µM), 0.966; with RAF265 + Alpelisib (first compound 0.03162 µM) it was 0.864; in the assay with RAF265 + Alpelisib (first compound 0.1 µM), 0.779. In addition, the relative viability in the assay with RAF265 + Alpelisib (first compound 0.3162 µM) was found to be 0.486; with RAF265 + Alpelisib (first compound 1 µM), 0.408.
As for NCI-H1793, the relative viability with IPA-3 + Navitoclax (first compound 0.2 µM) came to 0.518; with IPA-3 + Navitoclax (first compound 0.6325 µM) it was 0.37; with IPA-3 + Navitoclax (first compound 2 µM) it was 0.395; with IPA-3 + Navitoclax (first compound 6.325 µM), 0.44; with IPA-3 + Navitoclax (first compound 20 µM) it was 0.594; with RAF265 + Navitoclax (first compound 0.01 µM) it was 0.351. In addition, the relative viability is 0.379 with RAF265 + Navitoclax (first compound 0.03162 µM); 0.316 with RAF265 + Navitoclax (first compound 0.1 µM); 0.336 in the assay with RAF265 + Navitoclax (first compound 0.3162 µM); 0.21 with RAF265 + Navitoclax (first compound 1 µM); 0.404 in the assay with RAF265 + Tozasertib (first compound 0.01 µM); 0.421 with RAF265 + Tozasertib (first compound 0.03162 µM). The relative viability with RAF265 + Tozasertib (first compound 0.1 µM) came to 0.361; with RAF265 + Tozasertib (first compound 1 µM) it was 0.172; with RAF265 + Alpelisib (first compound 0.01 µM), 0.709; in the assay with RAF265 + Alpelisib (first compound 0.03162 µM), 0.914; in the assay with RAF265 + Alpelisib (first compound 0.1 µM), 0.66; in the assay with RAF265 + Alpelisib (first compound 0.3162 µM) it was 0.477. Moreover, the relative viability with RAF265 + Alpelisib (first compound 1 µM) came out at 0.293.
For NCI-H1915, the relative viability with IPA-3 + Navitoclax (first compound 0.2 µM) stood at 0.794; in the assay with IPA-3 + Navitoclax (first compound 0.6325 µM), 0.817; with IPA-3 + Navitoclax (first compound 2 µM), 0.782; with IPA-3 + Navitoclax (first compound 6.325 µM) it was 0.782; with IPA-3 + Navitoclax (first compound 20 µM), 0.738; with RAF265 + Navitoclax (first compound 0.01 µM), 0.76. Besides, the relative viability came out at 0.72 in the assay with RAF265 + Navitoclax (first compound 0.03162 µM); 0.712 with RAF265 + Navitoclax (first compound 0.1 µM); 0.407 in the assay with RAF265 + Navitoclax (first compound 0.3162 µM); 0.281 in the assay with RAF265 + Navitoclax (first compound 1 µM); 0.437 with RAF265 + Tozasertib (first compound 0.01 µM); 0.428 with RAF265 + Tozasertib (first compound 0.03162 µM). In addition, the relative viability with RAF265 + Tozasertib (first compound 0.1 µM) is 0.457; with RAF265 + Tozasertib (first compound 0.3162 µM), 0.278; with RAF265 + Tozasertib (first compound 1 µM) it was 0.163; in the assay with RAF265 + Alpelisib (first compound 0.01 µM), 1.07; with RAF265 + Alpelisib (first compound 0.03162 µM), 0.945; in the assay with RAF265 + Alpelisib (first compound 0.1 µM), 0.908. Moreover, the relative viability in the assay with RAF265 + Alpelisib (first compound 0.3162 µM) amounted to 0.543; with RAF265 + Alpelisib (first compound 1 µM), 0.296.
As for NCI-H1944, the relative viability amounted to 1.07 with IPA-3 + Navitoclax (first compound 0.2 µM); 0.899 with IPA-3 + Navitoclax (first compound 0.6325 µM); 1.1 in the assay with IPA-3 + Navitoclax (first compound 2 µM); 1.07 in the assay with IPA-3 + Navitoclax (first compound 6.325 µM); 1.02 with IPA-3 + Navitoclax (first compound 20 µM); 1.11 with RAF265 + Navitoclax (first compound 0.01 µM). Besides, the relative viability with RAF265 + Navitoclax (first compound 0.03162 µM) was 1.06; with RAF265 + Navitoclax (first compound 0.1 µM), 1.15; in the assay with RAF265 + Navitoclax (first compound 0.3162 µM) it was 0.798; in the assay with RAF265 + Navitoclax (first compound 1 µM) it was 0.86; with RAF265 + Tozasertib (first compound 0.01 µM), 0.265; with RAF265 + Tozasertib (first compound 0.03162 µM), 0.248. The relative viability is 0.265 with RAF265 + Tozasertib (first compound 0.1 µM); 0.234 with RAF265 + Tozasertib (first compound 0.3162 µM); 0.185 with RAF265 + Tozasertib (first compound 1 µM); 0.896 with RAF265 + Alpelisib (first compound 0.01 µM); 0.841 with RAF265 + Alpelisib (first compound 0.03162 µM); 0.646 with RAF265 + Alpelisib (first compound 0.1 µM). Further, the relative viability with RAF265 + Alpelisib (first compound 0.3162 µM) came to 0.496; with RAF265 + Alpelisib (first compound 1 µM), 0.442.

These data come from the supplement of paper PMC10307832.
